Here are results for nine compounds from publication PMC6155296, “Screening of Peruvian Medicinal Plants for Tyrosinase Inhibitory Properties: Identification of Tyrosinase Inhibitors in Hypericum laricifolium Juss” (Molecules : A Journal of Synthetic Chemistry and Natural …, 2017).

Read-outs that look alike come from different tables or passages of the source. Some results are limits rather than exact numbers.

For experiment [1], the target named is T1, Mushroom tyrosinase (Agaricus bisporus, UniProt C7FF04). Put plainly: Tyrosinase assay (spectrophotometry, L-tyrosine substrate). It counts as biochemical. As to the method:
Tyrosinase activity was determined by spectrophotometry, with minor modifications. First, 80 μL of 0.1 M potassium phosphate buffer (pH 6.6), 20 μL of sample dissolved in dimethyl sulfoxide at the concentrations needed (final concentrations 100–500 μg/mL), and 50 μL of L-tyrosine buffer (1.5 mM) solutions were mixed. Then, 50 μL of mushroom tyrosinase solution (200 unit/mL in phosphate buffer) was added to each mixture, which was then incubated at 25 °C for 15 min.
The results were expressed as mean ± standard deviation (SD), and were repeated three to five times. The inhibitory concentration (IC50) was calculated by log-Probit analysis.

Experiment [2] has as its target T1, Mushroom tyrosinase. The experiment is described as above. It counts as biochemical. This is another data set of the same source.
The subject of a further experiment is cyclooxygenase-1 (COX-1). Details: method as in PMID 14646327. The following applies: in vitro; cited from earlier work.

T1 sequence (C7FF04 2-392): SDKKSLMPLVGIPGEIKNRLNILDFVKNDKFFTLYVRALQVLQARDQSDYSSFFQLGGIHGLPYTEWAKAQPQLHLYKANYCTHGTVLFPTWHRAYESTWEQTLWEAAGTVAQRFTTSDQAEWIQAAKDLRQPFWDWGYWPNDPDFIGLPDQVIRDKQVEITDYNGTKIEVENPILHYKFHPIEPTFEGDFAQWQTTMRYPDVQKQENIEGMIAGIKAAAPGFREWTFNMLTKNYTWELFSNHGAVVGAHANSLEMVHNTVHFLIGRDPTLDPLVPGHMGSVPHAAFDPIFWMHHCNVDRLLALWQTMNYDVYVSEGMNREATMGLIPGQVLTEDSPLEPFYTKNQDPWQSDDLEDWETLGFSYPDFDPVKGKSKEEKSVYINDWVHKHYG
T1 sequence (G1K3P4 1-150 partner): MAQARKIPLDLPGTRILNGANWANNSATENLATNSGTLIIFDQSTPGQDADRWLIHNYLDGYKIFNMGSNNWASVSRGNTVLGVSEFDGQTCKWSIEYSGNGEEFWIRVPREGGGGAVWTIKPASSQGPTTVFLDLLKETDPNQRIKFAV

Take `OC[C@H]1O[C@@H](Oc2ccc(O)cc2)[C@H](O)[C@@H](O)[C@@H]1O` [Arbutin, arbutin, reference compound]: on Mushroom tyrosinase [1], the inhibition at 100 µg/mL amounted to 86 ± 1.6% and the inhibition at 500 µg/mL came out at 98.2 ± 0.9%. Also, the inhibition at 500 µg/mL on Mushroom tyrosinase [1] (read-out: Inhibition % (500 μg/mL)) was 92.3 ± 2.2%. On Mushroom tyrosinase [2], this compound gave an inhibition at 10 µg/mL of 13.7 ± 1.8% and an inhibition at 50 µg/mL of 63.8 ± 0.1%. As for `O=C(O)/C=C/c1ccc(O)c(O)c1` [Caffeic acid (5), caffeic acid], at Mushroom tyrosinase [1] (100 μg/mL, Table 4, read-out: Inhibition (%)), the inhibition at 100 µg/mL is under 1%. Take `O=C(/C=C/c1ccc(O)c(O)c1)O[C@@H]1C[C@](O)(C(=O)O)C[C@@H](O)[C@H]1O` [Chlorogenic acid (3), chlorogenic acid]: the inhibition at 100 µg/mL on Mushroom tyrosinase [1] is under 1%. Regarding `O=C(O)[C@H]1O[C@@H](Oc2c(-c3ccc(O)cc3)oc3cc(O)cc(O)c3c2=O)[C@H](O)[C@@H](O)[C@@H]1O` [Kaempferol 3-O-glucuronide (6), kaempferol 3-O-glucuronide], on Mushroom tyrosinase [1], the inhibition at 100 µg/mL is under 1%. `O=c1c(O)c(-c2ccc(O)cc2)oc2cc(O)cc(O)c12` [Kaempferol (8), kaempferol] gave an inhibition at 100 µg/mL on Mushroom tyrosinase [1] of 30 ± 1.97%.

On Mushroom tyrosinase [1], `O=C(O)c1ccc(O)c(O)c1` [Protocatechuic acid (1), protocatechuic acid] yielded an inhibition at 100 µg/mL of under 1%. In the case of `O=c1c(O)c(-c2ccc(O)c(O)c2)oc2cc(O)cc(O)c12` [Quercetin (7), quercetin], the “inhibition of cyclooxygenase-1 (COX-1)” value in the experiment with cyclooxygenase-1 (COX-1) was 52% ± 2. Further, the “Inhibition (%)” value on Mushroom tyrosinase [1] (100 μg/mL, Table 4) is on record as 99.7 ± 0.28%; at Mushroom tyrosinase [1] (100 μg/mL, Table 4, listed as quercetin), “over 95%”. For the compound `COc1cc(C(=O)O)ccc1O` [Vanilic acid (4), vanillic acid], the inhibition at 100 µg/mL on Mushroom tyrosinase [1] was under 1%. Still for that read-out and setting: the value for `O=C(O)c1ccc(O)cc1` [p-Hydroxybenzoic acid (2), p-hydroxybenzoic acid] was 8.3 ± 4.03%.
